# Measured values from publication PMC5519634, “Effects of 4(1H)-quinolinone derivative, a novel non-nucleotide allosteric purinergic P2Y2 agonist, on cardiomyocytes in neonatal rats” (Scientific Reports, 2017).
# Key:
# [1] = system: empty vector-transfected parental 1321N1 cells; experiment: Ca2+ mobilization in empty vector-transfected parental 1321N1 cells; format: cell-based, human; details: 10 μM; data not shown
# [2] = system: Nr4a1, Nr4a2, Nr4a3, c-fos mRNA in NRCMs; experiment: mRNA expression analysis of Nr4a1, Nr4a2, Nr4a3 and c-fos in NRCMs; format: cell-based, rat; details: for induction of Nr4a1 mRNA at 2 h versus isoproterenol alone: 30 μM Compound 89 or 100 μM ATP in the presence of 10 μM isoproterenol
# Procedure: Neonatal rat cardiomyocytes were seeded in a collagen I-coated 96-well plate, then cultured and maintained for a week before the ligand stimulation assay. […] After stimulation, cDNA samples were synthesized from lysates using TaqMan Gene Expression Cells-to-Ct kits (Thermo Fisher Scientific) according to the manufacturer’s instructions, followed by quantitative real-time polymerase chain reaction analysis using a Prism 7900HT sequence detector (Thermo Fisher Scientific). Thermal cycling parameters were 2 min at 50 °C and 10 min at 95 °C, followed by 40 cycles at 95 °C for 15 sec and 60 °C for 1 min. The mRNA levels were analysed with the comparative Ct method (2^−ΔΔCt) using Rplp0 as the housekeeping gene. The TaqMan Gene Expression assays (Thermo Fisher Scientific) used herein were as follows: Rn01533237_m1 (Nr4a1), Rn00570936_m1 (Nr4a2), Rn01354012_m1 (Nr4a3), Rn02396759_m1 (c-fos), and Rn03302271_gH (Rplp0).
# [3] = molecular target: T1, P2Y2 in neonatal rat cardiomyocytes (NRCMs) (Rattus norvegicus, UniProt P41232); experiment: cell-based
# T1 sequence (P41232 whole entry): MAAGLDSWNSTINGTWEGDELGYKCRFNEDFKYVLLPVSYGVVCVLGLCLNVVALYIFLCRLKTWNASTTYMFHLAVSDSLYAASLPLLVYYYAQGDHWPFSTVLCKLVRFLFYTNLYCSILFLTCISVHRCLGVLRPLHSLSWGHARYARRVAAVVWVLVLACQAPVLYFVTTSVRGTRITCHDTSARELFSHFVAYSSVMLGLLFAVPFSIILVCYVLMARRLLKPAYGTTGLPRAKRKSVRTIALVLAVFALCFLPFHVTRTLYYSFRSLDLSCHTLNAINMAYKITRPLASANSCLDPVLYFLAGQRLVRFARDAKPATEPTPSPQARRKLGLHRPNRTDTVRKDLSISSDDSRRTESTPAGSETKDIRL
# [4] = system: neonatal rat cardiomyocytes (NRCMs); experiment: Isoproterenol-induced cardiac hypertrophy in NRCMs; format: cell-based; details: 10 μM isoproterenol
# Procedure: Neonatal rat cardiomyocytes were seeded in a 96-well collagen I plate at a density of 5000 cells/well. They were incubated overnight and then transferred to a serum-free medium for one day. Next, the cells were treated with the indicated concentrations of compounds and 10 μM isoproterenol, and then incubated for 2 days. To quantify cardiomyocyte hypertrophy via filamentous actin staining, NRCMs were fixed with 4% paraformaldehyde (Wako) and permeabilized with 0.1% Triton X-100 (MP Biomedicals, France), followed by blocking with 1% bovine serum albumin (Wako) and staining with 2 μM phalloidin–fluorescein isothiocyanate (phalloidin-FITC; Sigma-Aldrich, Japan) and 10 μM Hoechst 33258 (Dojindo). Quantification of FITC-fluorescence intensity and cell number was performed using an IN Cell Analyzer 6000 (GE Healthcare Japan). The signals from obtained images were quantitated by means of a customized image analysis algorithm using the IN Cell Developer Toolbox (GE Healthcare Japan). Hypertrophic scores were calculated as the product of FITC-fluorescence intensity and cell area per cell as programmed by GE Healthcare technical support experts.
# human P2Y6 receptor = molecular target: T2, human P2Y6 receptor (Homo sapiens, UniProt Q15077); experiment: FLIPR Ca2+ mobilization assay in transiently hP2Y6-expressing 1321N1 cells; format: cell-based; details: at up to 30 µM
# T2 construct: expressed in transfected cells; host or cells: 1321N1 human astrocytoma cells, pcDNA3.1(+) plasmid, transient
# T2 sequence (Q15077 whole entry): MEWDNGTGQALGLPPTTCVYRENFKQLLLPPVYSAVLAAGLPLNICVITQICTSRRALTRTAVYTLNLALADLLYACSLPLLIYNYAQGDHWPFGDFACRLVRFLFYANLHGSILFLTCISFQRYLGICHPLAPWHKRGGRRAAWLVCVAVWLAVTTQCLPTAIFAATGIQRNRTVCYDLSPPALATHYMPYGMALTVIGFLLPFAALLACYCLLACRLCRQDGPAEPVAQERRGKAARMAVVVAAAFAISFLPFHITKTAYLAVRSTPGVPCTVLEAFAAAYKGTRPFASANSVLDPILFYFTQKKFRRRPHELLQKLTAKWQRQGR
# β-adrenergic receptor = experiment: cAMP signalling in parental 1321N1 cells; format: cell-based, human
# human P2Y12 receptor = molecular target: T3, human P2Y12 receptor (Homo sapiens, UniProt Q9H244); experiment: cAMP accumulation assay in hP2Y12-1321N1 cells; format: cell-based; details: at up to 30 µM
# T3 construct: expressed in transfected cells
# T3 sequence (Q9H244 whole entry): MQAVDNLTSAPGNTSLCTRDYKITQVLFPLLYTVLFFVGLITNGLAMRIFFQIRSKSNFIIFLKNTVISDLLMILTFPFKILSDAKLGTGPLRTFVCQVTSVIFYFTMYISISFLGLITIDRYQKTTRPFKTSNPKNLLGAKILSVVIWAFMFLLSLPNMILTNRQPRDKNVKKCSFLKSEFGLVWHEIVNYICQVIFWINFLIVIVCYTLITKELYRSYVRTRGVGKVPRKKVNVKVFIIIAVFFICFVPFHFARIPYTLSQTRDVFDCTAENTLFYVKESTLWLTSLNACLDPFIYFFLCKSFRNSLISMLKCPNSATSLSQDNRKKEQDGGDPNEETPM
# human P2Y2 receptors = human P2Y2 receptors (Homo sapiens, UniProt P41231); experiment: cell-based
# Chain of human P2Y2 receptors (P41231 whole entry): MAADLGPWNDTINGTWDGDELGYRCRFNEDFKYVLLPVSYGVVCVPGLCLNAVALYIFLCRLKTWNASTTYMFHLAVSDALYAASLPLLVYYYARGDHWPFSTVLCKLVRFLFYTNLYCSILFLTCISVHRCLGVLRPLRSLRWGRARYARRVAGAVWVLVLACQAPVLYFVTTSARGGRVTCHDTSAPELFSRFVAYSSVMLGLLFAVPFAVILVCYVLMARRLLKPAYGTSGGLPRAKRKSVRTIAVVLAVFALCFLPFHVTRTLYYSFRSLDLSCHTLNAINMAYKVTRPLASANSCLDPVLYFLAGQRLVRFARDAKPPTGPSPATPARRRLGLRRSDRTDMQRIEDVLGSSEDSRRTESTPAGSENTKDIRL
# human P2Y4 receptor = molecular target: T4, human P2Y4 receptor (Homo sapiens, UniProt P51582); experiment: FLIPR Ca2+ mobilization assay in transiently hP2Y4-expressing 1321N1 cells; format: cell-based; details: at up to 30 µM
# T4 construct: expressed in transfected cells; host or cells: 1321N1 human astrocytoma cells, pcDNA3.1(+) plasmid, transient
# T4 sequence (P51582 whole entry): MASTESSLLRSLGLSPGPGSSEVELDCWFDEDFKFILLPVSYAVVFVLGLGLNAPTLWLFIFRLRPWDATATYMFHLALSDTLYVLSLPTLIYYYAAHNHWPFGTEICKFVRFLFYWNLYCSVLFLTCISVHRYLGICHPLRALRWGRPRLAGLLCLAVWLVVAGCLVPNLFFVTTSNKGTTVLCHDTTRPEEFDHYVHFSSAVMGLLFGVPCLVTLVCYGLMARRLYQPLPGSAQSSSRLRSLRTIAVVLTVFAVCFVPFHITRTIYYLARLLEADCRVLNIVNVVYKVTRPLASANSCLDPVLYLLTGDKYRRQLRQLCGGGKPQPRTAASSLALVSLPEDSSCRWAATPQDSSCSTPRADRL
# human P2Y11 receptor = molecular target: T5, human P2Y11 receptor (Homo sapiens, UniProt Q96G91); experiment: FLIPR Ca2+ mobilization assay in transiently hP2Y11-expressing 1321N1 cells; format: cell-based; details: at up to 30 µM
# T5 construct: expressed in transfected cells; host or cells: 1321N1 human astrocytoma cells, pcDNA3.1(+) plasmid, transient
# T5 sequence (Q96G91 1-374): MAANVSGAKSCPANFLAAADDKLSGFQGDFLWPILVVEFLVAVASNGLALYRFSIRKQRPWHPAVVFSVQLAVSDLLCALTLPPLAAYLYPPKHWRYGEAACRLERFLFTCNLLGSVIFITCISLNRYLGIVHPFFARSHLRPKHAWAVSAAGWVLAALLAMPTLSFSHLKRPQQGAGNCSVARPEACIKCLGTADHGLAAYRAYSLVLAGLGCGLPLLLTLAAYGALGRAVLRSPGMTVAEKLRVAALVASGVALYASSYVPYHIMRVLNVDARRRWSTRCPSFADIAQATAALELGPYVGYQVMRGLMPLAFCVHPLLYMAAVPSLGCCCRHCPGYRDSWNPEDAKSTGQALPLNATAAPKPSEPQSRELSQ
# [5] = molecular target: T1, P2Y2 in neonatal rat cardiomyocytes (NRCMs); details: without ATP
# human P2Y1 receptor = molecular target: T6, human P2Y1 receptor (Homo sapiens, UniProt P47900); experiment: FLIPR Ca2+ mobilization assay in transiently hP2Y1-expressing 1321N1 cells; format: cell-based; details: at up to 30 µM
# T6 construct: expressed in transfected cells; host or cells: 1321N1 human astrocytoma cells, pcDNA3.1(+) plasmid, transient
# T6 sequence (P47900 whole entry): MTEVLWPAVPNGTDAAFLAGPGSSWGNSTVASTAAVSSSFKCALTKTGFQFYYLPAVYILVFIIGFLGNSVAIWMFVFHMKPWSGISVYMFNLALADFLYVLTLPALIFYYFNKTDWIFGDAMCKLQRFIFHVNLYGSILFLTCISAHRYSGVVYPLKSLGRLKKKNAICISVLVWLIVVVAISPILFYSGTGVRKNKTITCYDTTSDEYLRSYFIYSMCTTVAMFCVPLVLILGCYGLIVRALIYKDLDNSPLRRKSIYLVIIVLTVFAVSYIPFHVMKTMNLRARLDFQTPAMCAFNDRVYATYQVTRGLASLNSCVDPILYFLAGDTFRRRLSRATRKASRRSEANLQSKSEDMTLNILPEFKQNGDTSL
# mouse P2Y2 receptors = molecular target: T7, mouse P2Y2 receptors (Mus musculus, UniProt P35383); experiment: FLIPR Ca2+ mobilization assay in mP2Y2-1321N1 cells; format: cell-based
# T7 construct: expressed in transfected cells
# T7 sequence (P35383 whole entry): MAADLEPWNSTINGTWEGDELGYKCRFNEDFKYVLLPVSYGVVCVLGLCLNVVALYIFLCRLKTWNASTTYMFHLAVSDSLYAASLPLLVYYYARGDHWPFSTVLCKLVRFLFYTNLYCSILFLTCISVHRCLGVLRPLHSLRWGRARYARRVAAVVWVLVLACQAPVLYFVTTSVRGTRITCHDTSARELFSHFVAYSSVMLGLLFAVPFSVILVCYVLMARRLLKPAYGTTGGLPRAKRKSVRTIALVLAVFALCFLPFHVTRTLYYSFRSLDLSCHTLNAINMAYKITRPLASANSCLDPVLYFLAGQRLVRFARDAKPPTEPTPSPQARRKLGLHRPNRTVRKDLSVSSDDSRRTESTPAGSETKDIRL
# [6] = read-out: extrapolated maximum efficacy with respect to 10 μM ATP
smiles,measurement,setting,value
"Nc1ncnc2c1ncn2[C@@H]1O[C@H](COP(=O)(O)OP(=O)(O)O)[C@@H](O)[C@H]1O [ADP, adenosine-5′-diphosphate]",activity in empty vector-transfected parental 1321N1 cells,[1],lacked activity
"O=c1ccn([C@@H]2O[C@H](COP(=O)(O)OP(=O)(O)O)[C@@H](O)[C@H]2O)c(=O)[nH]1 [UDP, uridine-5′-diphosphate]",activity in empty vector-transfected parental 1321N1 cells,[1],lacked activity
"CC(C)NCC(O)c1ccc(O)c(O)c1 (centres unmarked) [isoproterenol, reference compound]",induction of Nr4a1 mRNA at 2 h versus vehicle,"[2]; 10 μM isoproterenol, P = 5 × 10^−4",significantly induced
"Nc1ncnc2c1ncn2[C@@H]1O[C@H](COP(=O)(O)OP(=O)(O)OP(=O)(O)O)[C@@H](O)[C@H]1O [ATP, adenosine-5′-triphosphate, reference compound]",expression of all Nr4a genes,"[2]; 10 μM, steadily after 30 min",increased
same,induction of Nr4a1 mRNA at 2 h versus isoproterenol alone,[2],did not affect induction
same,EC50,"[3]; EC50 for ATP, NRCMs, in the absence of Compound 89",2600 nM
same,effect on isoproterenol-induced cardiac hypertrophy (hypertrophic score),"[4]; 10 and 100 μM, P = 0.568",no significant effects
same,activity in empty vector-transfected parental 1321N1 cells,[1],lacked activity
"CCN(Cc1ccc(F)cc1)Cc1cc(=O)c2ccc(C)c(C)c2[nH]1 [Compound 89, 2-((ethyl(4-fluorobenzyl)amino)methyl)-7,8-dimethylquinolin-4(1H)-one]",induction of Nr4a1 mRNA at 2 h versus isoproterenol alone,[2],greater
same,effect on ATP-induced gene expression changes,"[2]; co-administration at 10 and 30 μM with ATP, concentration-dependent",enhanced
same,"changes in gene expression (Nr4a1, Nr4a2, Nr4a3, c-fos) by compound alone","[2]; without ATP, up to 90 min",did not induce any changes in gene expression
same,EC50,"[3]; EC50 for Compound 89, NRCMs, in the presence of 1 μM ATP",1300 nM
same,EC50,"[3]; EC50 for Compound 89, NRCMs, in the presence of 30 μM ATP",110 nM
same,agonistic activity against hP2Y6,human P2Y6 receptor,lacked agonistic activity
same,effect on β-adrenergic receptor-mediated cAMP signalling,β-adrenergic receptor,does not affect
same,agonistic activity against hP2Y12,human P2Y12 receptor,lacked agonistic activity
same,EC50,"human P2Y2 receptors; EC50 (potency), agonistic activity, transiently-expressing hP2Y2-1321N1 cells (Fig. 1b)",10500 nM
same,EC50,"human P2Y2 receptors; EC50 for Compound 89, hP2Y2 stably-expressing 1321N1 cells, in the absence of ATP",53900 nM
same,EC50,"human P2Y2 receptors; EC50 for Compound 89, hP2Y2 stably-expressing 1321N1 cells, in the presence of 10 nM ATP",2500 nM
same,Emax,human P2Y2 receptors; [6],65.8%
same,attenuation of hypertrophy after 48 h of treatment,[4]; 30 μM,Complete attenuation
same,effect on isoproterenol-induced cardiac hypertrophy (hypertrophic score),"[4]; 1 to 30 μM, concentration-dependent",attenuated
same,agonistic activity against hP2Y4,human P2Y4 receptor,lacked agonistic activity
same,agonistic activity against hP2Y11,human P2Y11 receptor,lacked agonistic activity
same,intrinsic agonistic activity,[5],no intrinsic agonistic activity
same,agonistic activity against hP2Y1,human P2Y1 receptor,lacked agonistic activity
same,Emax,mouse P2Y2 receptors; [6],50.9%
same,EC50,"mouse P2Y2 receptors; stably-expressing mP2Y2-1321N1 cells (Fig. 1b), read-out: EC50 (potency), agonistic activity",2700 nM
"O=c1ccn([C@@H]2O[C@H](COP(=O)(O)OP(=O)(O)OP(=O)(O)O)[C@@H](O)[C@H]2O)c(=O)[nH]1 [UTP, uridine-5′-triphosphate]",activity in empty vector-transfected parental 1321N1 cells,[1],lacked activity
